Reference: patent publication US20050209278A1, “Piperidinyl- and piperazinyl-sulfonylmethyl hydroxamic acids and their use as protease inhibitors” (priority 2002, published 2005)

Tests used:
MMP-1 = biological target: T1, MMP-1 (Homo sapiens, UniProt P03956); test: In vitro MMP inhibition, Ki determination (fluorogenic substrate II); assay type: biochemical; conditions: value outside parentheses; read-out: MMP-1 Ki
T1 construct: made in house; host or cells: MMP-1-transfected HT-1080 cells (spent media)
T1 sequence (P03956 100-469): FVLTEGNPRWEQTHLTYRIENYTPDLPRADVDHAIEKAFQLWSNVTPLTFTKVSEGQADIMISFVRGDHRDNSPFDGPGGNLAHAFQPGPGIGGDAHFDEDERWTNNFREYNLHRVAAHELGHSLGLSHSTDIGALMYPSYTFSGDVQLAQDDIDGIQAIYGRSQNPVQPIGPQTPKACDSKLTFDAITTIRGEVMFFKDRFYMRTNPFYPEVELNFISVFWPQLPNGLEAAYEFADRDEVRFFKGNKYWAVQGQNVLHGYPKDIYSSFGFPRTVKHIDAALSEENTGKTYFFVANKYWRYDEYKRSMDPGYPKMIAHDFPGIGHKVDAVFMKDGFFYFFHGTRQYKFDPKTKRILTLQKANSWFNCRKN

MMP-13 = biological target: T2, MMP-13 (Homo sapiens, UniProt P45452); test: In vitro MMP inhibition, IC50 determination (fluorogenic substrate I); assay type: biochemical; conditions: value in parentheses; read-out: MMP-13 (IC-50)
T2 construct: made in house; host or cells: baculovirus / insect cells
Description: Several hydroxamic acids and salts thereof were analyzed in in vitro assays to determine their ability to inhibit the MMP cleavage of peptide substrates. […] and IC50 constants were calculated from the assayed hydroxamic acid-MMP interactions.
Human recombinant MMP-1, MMP-2, MMP-9, MMP-13, and MMP-14 were used in this assay. All enzymes were prepared in Assignee's laboratories following usual laboratory procedures. Protocols for the preparation and use of these enzymes are available in the scientific literature. See, e.g., Enzyme Nomenclature (Academic Press, San Diego, Calif., 1992) (and the citations therein). See also, Freije et al., “Molecular cloning and expression of collagenase-3, a novel human matrix metalloproteinase produced by breast carcinomas,” J Biol. Chem., 269(24), 16766-16773 (1994).
The MMP-13 was obtained as a proenzyme from a full-length cDNA clone using baculovirus, as described by V. A. Luckow, “Insect Cell Expression Technology,” Protein Engineering: Principles and Practice, pp. 183-218 (edited by J. L. Cleland et al., Wiley-Liss, Inc., 1996). The expressed proenzyme was first purified over a heparin agarose column, and then over a chelating zinc chloride column. The proenzyme was then activated by APMA for use in the assay. Further details on baculovirus expression systems may be found in, for example, Luckow et al., J. Virol., 67, 4566-79 (1993). See also, O'Reilly et al, Baculovirus Expression Vectors: A Laboratory Manual (W.H. Freeman and Co., New York, N.Y., 1992). See also, King et al., The Baculovirus Expression System: A Laboratory Guide (Chapman & Hall, London, England, 1992).
All MMPs were activated using 4-aminophenylmercuric acetate (“APMA”, Sigma Chemical, St. Louis, Mo.) or trypsin. MMP-9 also was activated using human recombinant MMP-3 (purified in Assignee's laboratory following standard cloning and purification techniques).
Two fluorogenic, methoxycoumarin-containing polypeptide substrates were used in the MMP inhibition assays: [drawing 427] Here, “Dpa” is 3-(2,4-dinitrophenyl)-L-2,3-diaminopropionyl group, and “MCA” is 7-methoxycoumarin-4-yl acetyl. Substrate (I) was purchased from Baychem (Redwood City, Calif.), and substrate II was prepared Assignee's laboratory. Substrate I was used in the IC50 determination assays, while substrate II was used in the Ki determination assays. In the absence of MMP inhibitory activity, either substrate is cleaved at the Gly-Leu peptide bond. This cleavage separates the highly fluorogenic peptide from the 2,4-dinitrophenyl quencher, thus resulting in increase of fluorescent intensity.
The stock solutions of the assayed hydroxamic acids (or salts thereof) were prepared in 1% dimethyl sulfoxide (DMSO). These stock solutions were diluted in Buffer A (100 mM Tris-HCl, 100 mM NaCl, 10 mM CaCl2, 0.05% polyoxyethylene 23 lauryl ether, pH 7.5) to obtain solutions with different hydroxamic acid concentrations, i.e., assay solutions with different concentrations of the assayed MMP inhibitory compound. The experiment controls contained the same amount of Buffer A/DMSO as the assayed sample, but contained no hydroxamic acid (or salt thereof).
The assays from which the IC50 determinations were made were performed as follows. The MMPs were activated with either trypsin or APMA (4-aminophenylmercuric acetate, Sigma Chemical, St. Louis, Mo.). The assayed hydroxamic acid samples were incubated in Microfluor™ White Plates (Dynatech, Chantilly, Va.) and analyzed on a Perkin Elmer L550 plate reader (Norwalk, Conn.). The excitation wavelength was 328 nm, and the emission wavelength—415 nm. All samples (assayed hydroxamic acids and controls) were incubated in separate plates at room temperature in the presence of 4 μM of MMP substrate (I). As stated in the previous paragraph, samples containing varying concentrations of the same assayed hydroxamic acid were prepared. Inhibition was measured as a reduction in fluorescent intensity as a function of MMP inhibitor concentration. […]

SMILES	Ki (MMP-1)	IC50 (MMP-13)
CCCCOc1ccc(N2CCN(S(=O)(=O)C3(C(=O)NO)CCN(C(=O)CN)CC3)CC2)cc1 [Example 292]	> 10000 nM	0.7 nM
CCCCOc1ccc(N2CCN(S(=O)(=O)C3(C(=O)NO)CCN(Cc4cccnc4)CC3)CC2)cc1F [Example 293]	> 10000 nM	0.8 nM
CCCCOc1ccc(N2CCN(S(=O)(=O)C3(C(=O)NO)CCN(c4ccc(C)cc4)CC3)CC2)cc1 [Example 295]	> 10000 nM	< 0.1 nM
CCCCOc1ccc(N2CCN(S(=O)(=O)C3(C(=O)NO)CCN(c4ccc(C)cc4)CC3)CC2)cc1F [Example 296]	> 10000 nM	0.9 nM
COCCOc1ccc(N2CCN(S(=O)(=O)C3(C(=O)NO)CCN(C4CC4)CC3)CC2)cc1F [Example 297]	> 10000 nM	1.7 nM
CCCCOc1ccc(N2CCN(S(=O)(=O)C3(C(=O)NO)CCN(CC4CC4)CC3)CC2)cc1 [Example 298]	> 10000 nM	0.9 nM
Cc1cc(N2CCN(S(=O)(=O)C3(C(=O)NO)CCOCC3)CC2)ccc1OC(C)C [Example 299]	> 10000 nM	9.3 nM
CS(=O)(=O)c1ccc(N2CCN(S(=O)(=O)C3(C(=O)NO)CCOCC3)CC2)cc1 [Example 300]	> 10000 nM	61.2 nM
CCCCOc1ccc(N2CCN(S(=O)(=O)C3(C(=O)NO)CCN(C4CC4)CC3)CC2)cc1 [Example 301]	> 10000 nM	0.3 nM
C#CCN1CCC(C(=O)NO)(S(=O)(=O)N2CCN(c3ccc(OCCCC)cc3)CC2)CC1 [Example 303]	> 10000 nM	0.1 nM
